Measurements as given in publication PMC6891286, “Towards the Development of an In vivo Chemical Probe for Cyclin G Associated Kinase (GAK)” (Molecules, 2019).
pIC50, pKd, pKi: −log10 of the molar value. Like-named read-outs stand apart in the source and are kept apart here.

Columns and labels:
[1] = metabolite identification in mouse liver microsomes
Experimental: After centrifugation, the supernatant was subjected to analysis by LCMS, and structures of metabolites were assigned on the basis of their molecular weight and fragmentation pattern.
Compounds were incubated at a concentration of 10 µM with mouse liver microsomes in the presence of an excess of NADPH.
1.1. General Numbering of Metabolites
The metabolites are numbered according to their retention times in the gradient LC-MS analysis in positive […]
ion mode. […] The M number increases […]
consecutively for metabolites with increasing retention time.
To avoid confusion, labelled retention times of a metabolite peak in different injections are the same, which may lead to mismatch between labelled retention time and actual retention time.
General Strategy for Metabolite Identification
The vehicle control and study samples were injected into LC-MS with gradient elution using a Q1 scan method. Searching for potential metabolites was then performed using LightSight software (Applied Biosystems/MDS Sciex) by comparing a total ion current chromatogram of Q1 scan from a study sample with a chromatogram from the corresponding vehicle control sample. The study sample was then injected again to obtain the product ion spectra of potential metabolites using product ion scan methods. The fragmentation patterns of the potential metabolites were then compared to the fragmentation of the parent compound to elucidate the structures of the metabolites.
The assignment of fragments is shown
2.2. Identification of Metabolites in Mouse Liver Microsomal Incubation

[2] = mouse liver microsome metabolic stability; details: for T1/2 / half-life: mean average, n = 2; for T1/2 Ratio (+) ABT / T1/2 Ratio (−) ABT / T1/2 Ratio / CLint scaled / half-life: mouse liver microsomes; for T1/2 Ratio (+) ABT / T1/2 Ratio (−) ABT: normalized to propranolol; for T1/2 Ratio: normalization with respect to internal control (propranolol); for CLint scaled / half-life: mouse
Experimental: SGC-GAK-1 (1) was incubated with MLMs in the presence or absence of added NADPH, and the compound was quantified at various time points over an hour.
The metabolic stability of the 4-anilinoquinolines (8–13) were evaluated in MLMs (Table 1). Half-lives for metabolic clearance were normalized to propranolol in each experimental run to control for variations in the MLM preparations.

BMP2K = BMP2K (Homo sapiens, UniProt Q9NSY1); assay: NAK family TR-FRET binding displacement assay
Chain of BMP2K (Q9NSY1 whole entry): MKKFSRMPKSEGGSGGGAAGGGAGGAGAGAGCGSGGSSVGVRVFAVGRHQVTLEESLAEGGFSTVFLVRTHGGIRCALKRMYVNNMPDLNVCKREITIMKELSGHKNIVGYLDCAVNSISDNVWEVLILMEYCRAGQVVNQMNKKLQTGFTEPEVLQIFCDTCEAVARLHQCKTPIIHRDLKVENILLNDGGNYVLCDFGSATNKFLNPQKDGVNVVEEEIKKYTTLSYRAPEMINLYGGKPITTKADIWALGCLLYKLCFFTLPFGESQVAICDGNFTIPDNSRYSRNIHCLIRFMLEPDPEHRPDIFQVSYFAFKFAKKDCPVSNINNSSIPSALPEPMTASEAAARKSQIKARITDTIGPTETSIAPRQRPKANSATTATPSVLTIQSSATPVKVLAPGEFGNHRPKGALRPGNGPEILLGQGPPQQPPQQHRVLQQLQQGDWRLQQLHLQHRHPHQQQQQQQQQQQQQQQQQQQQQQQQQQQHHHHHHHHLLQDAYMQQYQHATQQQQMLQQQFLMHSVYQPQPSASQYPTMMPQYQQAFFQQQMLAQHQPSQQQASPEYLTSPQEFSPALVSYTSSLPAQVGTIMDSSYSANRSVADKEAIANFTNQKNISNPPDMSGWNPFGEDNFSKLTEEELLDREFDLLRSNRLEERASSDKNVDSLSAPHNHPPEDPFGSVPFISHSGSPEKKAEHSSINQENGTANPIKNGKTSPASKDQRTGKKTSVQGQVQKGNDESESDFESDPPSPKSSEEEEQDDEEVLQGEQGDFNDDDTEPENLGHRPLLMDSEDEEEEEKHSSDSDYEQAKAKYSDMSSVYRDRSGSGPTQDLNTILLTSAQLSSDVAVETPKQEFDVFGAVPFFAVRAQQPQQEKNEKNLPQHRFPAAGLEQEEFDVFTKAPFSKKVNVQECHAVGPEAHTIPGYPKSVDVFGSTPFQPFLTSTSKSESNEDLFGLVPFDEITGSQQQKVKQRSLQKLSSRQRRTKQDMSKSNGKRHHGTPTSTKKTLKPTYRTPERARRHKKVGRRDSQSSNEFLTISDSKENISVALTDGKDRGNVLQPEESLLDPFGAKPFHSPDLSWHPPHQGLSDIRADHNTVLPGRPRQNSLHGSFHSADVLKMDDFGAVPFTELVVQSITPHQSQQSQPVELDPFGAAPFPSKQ

AAK1 = AAK1 (Homo sapiens, UniProt Q2M2I8); assay: NAK family TR-FRET binding displacement assay; details: NAK family FRET screening
Chain of AAK1 (Q2M2I8 whole entry): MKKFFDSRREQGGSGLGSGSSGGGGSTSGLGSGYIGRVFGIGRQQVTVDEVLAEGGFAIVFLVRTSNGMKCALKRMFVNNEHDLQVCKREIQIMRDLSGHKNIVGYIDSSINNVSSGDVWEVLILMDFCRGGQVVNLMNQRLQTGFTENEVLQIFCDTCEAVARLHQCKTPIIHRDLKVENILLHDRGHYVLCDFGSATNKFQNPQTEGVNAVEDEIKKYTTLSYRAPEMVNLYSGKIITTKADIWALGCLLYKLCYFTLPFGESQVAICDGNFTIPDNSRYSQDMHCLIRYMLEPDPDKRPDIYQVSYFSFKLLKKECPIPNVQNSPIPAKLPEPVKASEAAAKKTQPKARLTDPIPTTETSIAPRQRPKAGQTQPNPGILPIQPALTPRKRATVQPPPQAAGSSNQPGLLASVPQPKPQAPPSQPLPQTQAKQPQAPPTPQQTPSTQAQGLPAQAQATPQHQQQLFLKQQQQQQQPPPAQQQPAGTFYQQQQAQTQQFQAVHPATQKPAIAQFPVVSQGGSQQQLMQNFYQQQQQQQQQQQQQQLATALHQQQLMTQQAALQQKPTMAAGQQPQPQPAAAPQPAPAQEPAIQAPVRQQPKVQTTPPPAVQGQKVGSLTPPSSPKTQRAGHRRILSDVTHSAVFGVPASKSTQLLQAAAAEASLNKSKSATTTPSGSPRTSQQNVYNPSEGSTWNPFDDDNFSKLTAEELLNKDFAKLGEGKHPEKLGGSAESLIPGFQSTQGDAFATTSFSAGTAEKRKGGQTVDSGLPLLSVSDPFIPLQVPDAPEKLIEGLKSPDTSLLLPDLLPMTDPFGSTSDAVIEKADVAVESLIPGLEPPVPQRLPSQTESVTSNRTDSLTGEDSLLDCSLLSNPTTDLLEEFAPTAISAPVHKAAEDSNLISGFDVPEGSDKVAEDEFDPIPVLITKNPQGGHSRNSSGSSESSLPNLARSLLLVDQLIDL

STK16 = STK16 (Homo sapiens, UniProt O75716); assay: NAK family TR-FRET binding displacement assay
Chain of STK16 (O75716 whole entry): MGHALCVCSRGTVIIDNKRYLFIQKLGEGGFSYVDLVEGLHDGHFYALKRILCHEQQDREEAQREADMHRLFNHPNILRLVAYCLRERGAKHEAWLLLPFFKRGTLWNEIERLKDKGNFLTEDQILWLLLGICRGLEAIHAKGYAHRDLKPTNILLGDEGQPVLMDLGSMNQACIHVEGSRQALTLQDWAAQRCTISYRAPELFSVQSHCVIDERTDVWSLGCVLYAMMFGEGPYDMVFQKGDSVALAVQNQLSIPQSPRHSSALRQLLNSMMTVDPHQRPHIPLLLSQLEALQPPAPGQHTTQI

GAK [3] = biological target: T1, GAK (Homo sapiens, UniProt O14976); assay: TR-FRET ligand-binding displacement assay
T1 sequence (O14976 1-1311): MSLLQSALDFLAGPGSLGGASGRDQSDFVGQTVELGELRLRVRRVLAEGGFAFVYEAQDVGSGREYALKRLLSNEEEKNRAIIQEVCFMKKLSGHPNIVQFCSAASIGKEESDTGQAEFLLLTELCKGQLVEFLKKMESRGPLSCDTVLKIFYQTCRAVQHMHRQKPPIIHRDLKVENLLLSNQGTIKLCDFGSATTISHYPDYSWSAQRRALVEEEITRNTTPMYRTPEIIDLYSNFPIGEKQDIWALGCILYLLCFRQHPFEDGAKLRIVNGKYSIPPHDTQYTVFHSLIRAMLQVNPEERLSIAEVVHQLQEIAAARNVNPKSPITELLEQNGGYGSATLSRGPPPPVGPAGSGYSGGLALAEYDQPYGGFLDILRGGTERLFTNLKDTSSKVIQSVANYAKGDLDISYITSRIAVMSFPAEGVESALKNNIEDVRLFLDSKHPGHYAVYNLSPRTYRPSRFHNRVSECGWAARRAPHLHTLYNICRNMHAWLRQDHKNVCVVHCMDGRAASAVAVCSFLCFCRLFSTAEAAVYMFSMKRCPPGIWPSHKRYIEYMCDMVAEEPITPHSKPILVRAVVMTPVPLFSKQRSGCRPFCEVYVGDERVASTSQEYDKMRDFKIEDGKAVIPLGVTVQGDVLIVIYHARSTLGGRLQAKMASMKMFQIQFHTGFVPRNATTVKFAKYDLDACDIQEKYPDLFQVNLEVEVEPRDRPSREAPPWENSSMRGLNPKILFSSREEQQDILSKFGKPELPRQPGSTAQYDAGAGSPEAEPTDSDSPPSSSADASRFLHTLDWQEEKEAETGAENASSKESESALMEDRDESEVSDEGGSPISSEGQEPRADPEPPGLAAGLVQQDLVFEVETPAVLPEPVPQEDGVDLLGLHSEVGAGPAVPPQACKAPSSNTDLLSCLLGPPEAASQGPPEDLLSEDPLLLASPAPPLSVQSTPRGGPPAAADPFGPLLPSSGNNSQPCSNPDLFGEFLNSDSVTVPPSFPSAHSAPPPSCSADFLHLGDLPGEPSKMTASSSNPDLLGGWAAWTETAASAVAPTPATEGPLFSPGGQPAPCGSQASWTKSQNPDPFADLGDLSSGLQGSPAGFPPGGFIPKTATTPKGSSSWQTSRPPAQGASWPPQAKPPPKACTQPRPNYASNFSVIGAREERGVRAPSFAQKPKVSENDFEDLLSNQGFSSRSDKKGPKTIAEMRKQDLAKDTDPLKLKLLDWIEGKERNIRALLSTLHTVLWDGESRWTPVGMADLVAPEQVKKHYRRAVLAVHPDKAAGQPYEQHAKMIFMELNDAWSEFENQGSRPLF

GAK [4] = biological target: T1, GAK; assay: live cell NanoBRET target engagement assay; type: cell-based; details: for pIC50: nanoBRET, mean average, n = 2; for IC50 values in cells: live cell NanoBRET assay
Kinetic Solubility = type: physicochemical; details: PBS pH7.4 (100 µM)
EGFR = details: read-out: EGFR KD; cited from earlier work
[5] = mouse liver microsomes with NADPH
[6] = NAK family FRET screening, read-out: Binding displacement assay BMP2K Ki
[7] = NAK family FRET screening, read-out: Binding displacement assay STK16 Ki
[8] = TR-FRET assay, read-out: Biochemical GAK Ki
[9] = Clint (mL/min/kg) (+) ABT, (+) ABT
[10] = Clint (mL/min/kg) (−) ABT, (−) ABT
[11] = T1/2 (min), mouse liver microsomes with NADPH
[12] = pH 7.4, aqueous buffer, kinetic from dmso stock, read-out: Kinetic Solubility µM
[13] = pH 7.4, aqueous buffer, kinetic from dmso stock, read-out: Kinetic Solubility µg/mL
[14] = NAK family FRET screening, read-out: Binding displacement assay GAK Ki

Compound	pKi (AAK1)	pKi (STK16; [7])	pKi (GAK [3]; [8])	T1/2 Ratio [2]	half-life [2, 11] [min]	pIC50 (GAK [4])	solubility kinetic (Kinetic Solubility; [12]) [µM]	solubility kinetic (Kinetic Solubility; [13]) [µg/mL]	pKi (BMP2K)	other results
COc1cc(Nc2ccnc3ccc(C(F)(F)F)cc23)cc(OC)c1OC [Compound 13]	4.27	4.77	–	–	–	–	–	–	–	Primary Metabolism Site [1]: Aniline; Primary Metabolite Mass [1]: Parent + O; T1/2 [2, 5]: 6.4 min; pKi (BMP2K; [6]): < 4.00
Brc1ccc2nccc(Nc3cccc4c3OCO4)c2c1 [Compound 9, N-(Benzo[d][1,3]dioxol-4-yl)-6-bromoquinolin-4-amine]	< 4.00	< 4.00	8.72	1.9	8.9	7.66	7.3	2.5	< 4.00	Primary Metabolism Site [1]: Aniline; Primary Metabolite Mass [1]: Parent + O; T1/2 Ratio (+) ABT ([2]; (+) ABT): 0.13; T1/2 Ratio (−) ABT ([2]; (−) ABT): 0.05; CLint scaled [2, 9]: 188 L/h/kg; CLint scaled [2, 10]: 457 L/h/kg; half-life ([2]; T1/2 (min) (+) ABT, (+) ABT): 1.8 min; half-life ([2]; T1/2 (min) (−) ABT, (−) ABT): 0.74 min
Fc1ccc(F)c(Nc2ccnc3ccc(Br)cc23)c1 [Compound 10, 6-Bromo-N-(2,5-difluorophenyl)quinolin-4-amine]	5.42	5.21	7.82	0.17	1.7	6.06	2.2	0.7	5.01	Primary Metabolism Site [1]: Aniline; Primary Metabolite Mass [1]: Parent + O
Brc1ccc2nccc(Nc3cccc4cnoc34)c2c1 [Compound 21, N-(6-Bromoquinolin-4-yl)benzo[d]isoxazol-7-amine]	5.34	5.12	7.43	0.64	5.2	5.85	24.9	8.5	4.92	–
N-(1H-Indazol-4-yl)-6-(trifluoromethyl)quinolin-4-amine [Compound 33]	5.34	4.96	6.14	0.90	–	< 5.30	–	–	–	T1/2 [2, 5]: 5.9 min; Kinetic Solubility µg/mL (Kinetic Solubility): 8.2 µg/mL; solubility kinetic (Kinetic Solubility; read-out: Kinetic Solubility µM): 24.2 µM; pKi (BMP2K; [6]): 4.80
Fc1ccc(Nc2ccnc3ccc(Br)cc23)c(F)c1 [Compound 11, 6-Bromo-N-(2,4-difluorophenyl)quinolin-4-amine]	5.24	4.96	7.46	0.47	3.2	5.57	39.5	13.2	4.74	Primary Metabolism Site [1]: Aniline; Primary Metabolite Mass [1]: Parent − F + OH
C#Cc1cccc(Nc2ncnc3cc(OCCOC)c(OCCOC)cc23)c1 [Erlotinib, erlotinib]	–	–	–	–	–	–	–	–	–	pKd (EGFR): 9.15
Fc1ccc2c(c1Nc1ccnc3ccc(Br)cc13)OCO2 [Compound 14, 6-Bromo-N-(5-fluorobenzo[d][1,3]dioxol-4-yl)quinolin-4-amine]	5.01	4.70	8.85	0.27	1.8	6.92	8.8	3.2	4.80	T1/2 Ratio (+) ABT ([2]; (+) ABT): 0.18; T1/2 Ratio (−) ABT ([2]; (−) ABT): 0.05; CLint scaled [2, 9]: 137 L/h/kg; CLint scaled [2, 10]: 453 L/h/kg; half-life ([2]; T1/2 (min) (+) ABT, (+) ABT): 2.5 min; half-life ([2]; T1/2 (min) (−) ABT, (−) ABT): 0.74 min
Brc1ccc2nccc(Nc3cccc4oncc34)c2c1 [Compound 22, N-(6-Bromoquinolin-4-yl)benzo[d]isoxazol-4-amine]	5.34	–	7.72	0.17	1.4	< 5.30	3.6	1.2	4.82	pKi (STK16): 4.82

Now from value to compound, other results behind:

pKi (AAK1)	pKi (STK16; [7])	pKi (GAK [3]; [8])	T1/2 Ratio [2]	half-life [2, 11] [min]	pIC50 (GAK [4])	solubility kinetic (Kinetic Solubility; [12]) [µM]	solubility kinetic (Kinetic Solubility; [13]) [µg/mL]	pKi (BMP2K)	Compound	other results
5.59	–	–	0.68	5.3	6.66	8.6	3.1	5.10	Brc1ccc2nccc(Nc3cccc4ncsc34)c2c1 [Compound 24, N-(6-Bromoquinolin-4-yl)benzo[d]thiazol-7-amine]	pKi (GAK [3]; [14]): 8.39; IC50 values in cells (GAK [4]): submicromolar; pKi (STK16): 5.11
5.92	< 4.00	7.59	0.32	2.6	< 5.30	1.1	0.4	< 4.00	Brc1ccc2nccc(Nc3cccc4scnc34)c2c1 [Compound 25, N-(6-Bromoquinolin-4-yl)benzo[d]thiazol-4-amine]	–
6.28	5.24	7.33	0.92	7.5	< 5.30	12.3	4.2	6.18	Brc1ccc2nccc(Nc3ccc4[nH]ncc4c3)c2c1 [Compound 37, 6-Bromo-N-(1H-indazol-5-yl)quinolin-4-amine]	–
5.70	4.66	8.28	0.20	1.6	6.40	1.7	0.6	5.37	Brc1ccc2nccc(Nc3cccc4nsnc34)c2c1 [Compound 29, N-(6-Bromoquinolin-4-yl)benzo[c][1,2,5]thiadiazol-4-amine]	IC50 values in cells (GAK [4]): submicromolar
< 4.00	< 4.00	–	0.21	1.7	6.47	25.9	8.8	< 4.00	Brc1ccc2nccc(Nc3cccc4ncoc34)c2c1 [Compound 23, N-(6-Bromoquinolin-4-yl)benzo[d]oxazol-7-amine]	pKi (GAK [3]; [14]): 7.96; IC50 values in cells (GAK [4]): submicromolar
